Measured values from patent US8173644B2, “3-substituted-[1,2,3]-benzotriazinone compound for enhancing glutamatergic synaptic responses” (Les Laboratoires Servier, priority 2007, dated 2012).

Assays:
[1] = system: field EPSP (perforant path / dentate gyrus of the hippocampus); assay: In vivo physiological testing: field EPSP in dentate gyrus of hippocampus of anesthetized animals; conditions: dose of 5 mg/kg, iv administration
Protocol: The physiological effects of the invention compound were tested in vivo in anesthetized animals according to the following procedures.
Animals are maintained under anesthesia by phenobarbital administered using a Hamilton syringe pump. Stimulating and recording electrodes are inserted into the perforant path and dentate gyrus of the hippocampus, respectively. Once electrodes are implanted, a stable baseline of evoked responses are elicited using single monophasic pulses (100 μs pulse duration) delivered at 3/min to the stimulating electrode. Field EPSPs are monitored until a stable baseline is achieved (about 20-30 min), after which a solution of test compound in HPCD is injected intraperitoneally and evoked field potentials are recorded. Evoked potentials are recorded for approximately 2 h following drug administration or until the amplitude of the field EPSP returns to baseline. In the latter instance, it is common that an iv administration is also carried out with an appropriate dose of the same test compound.

AMPA receptor = assay: AMPA mediated whole cell currents in cultured cortical neurons (patch clamp, glutamate-induced steady-state current); type: cell-based, Sprague-Dawley rats; conditions: cultured rat cortical neurons, 500 μM glutamate, voltage-clamped at −80 mV; read-out: EC2x value (concentration at which the glutamate induced current is increased by 100%)
Protocol: Synaptic responses mediated by AMPA receptors are increased according to the method of the invention, using the compound described herein. […] The in vitro assay is described as follows. Cortical cells were prepared from day 18-19 embryonic Sprague-Dawley rats and recorded after 3 days in culture. The extracellular solution (ECS) contained (in mM): NaCl (145), KCl (5.4), HEPES (10), MgCl2 (0.8), CaCl2 (1.8), glucose (10), sucrose (30); pH. 7.4. In order to block the voltage-gated sodium currents, 40 nM TTX was added to the recording solution. […]
The whole-cell current was measured with patch-clamp amplifier (Axopatch 200B), filtered at 2 kHz, digitized at 5 kHz and recorded on a PC with pClamp 8. […] A baseline response for each cell was recorded using a 1 s pulse of 500 μM glutamate dissolved in ECS. Responses to test compound were then determined by application of a 10 s pulse of test compound followed by a 1 s pulse of the same concentration of test compound plus 500 μM glutamate and then 10 s of saline. This pulse sequence was repeated until a stable reading was obtained, or until sufficient data points were measured to allow extrapolation to a calculated maximum change.
The mean value of plateau current between 600 ms to 900 ms after application of glutamate or test compound plus glutamate was calculated and used as the parameter to measure the drug effect. […]

O=C1c2cc3nnn(CCc4cccc(F)c4)c(=O)c3cc2OCN1C1CC1 [8-Cyclopropyl-3-[2-(3-fluorophenyl)ethyl]-7,8-dihydro-3H-[1,3]oxazino[6,5-g][1,2,3]-benzotriazine-4,9-dione]
increase in the amplitude of the field EPSP [1]: 10% | EC2x (concentration that doubles the glutamate-induced current) (AMPA receptor): 100 nM
